# Laboratory results: US20260242759A1, “GQ/11 Protein Peptidomimetics” (Vrije Universiteit Brussel, priority 2022, published 2026)
# Positions of bridges follow the written chain, without caps; N, C: chain ends. Non-standard residues stand in square brackets, D forms with d. Residues, ends and D or L forms follow the SMILES beside them. Triazole bridges read from a SMILES are 1,4-linked. Lys(N3) = [N-]=[N+]=NCCCC[C@H](N)C(=O)O; Cha = N[C@@H](CC1CCCCC1)C(=O)O; Pra = C#CC[C@H](N)C(=O)O
# Tests used:
# HEK293 1C8 cells = test: MTT cytotoxicity assay; format: cell-based, human; details: varying concentrations up to 40 μM, 3 h 45 min
# Description: Cells were washed two times with PBS and incubated with 3-(4,5-dimethylthiazol-2-yl)-2,5-diphenyltetrazolium bromide (MTT) during 3 h, at 37° C. Afterwards, cells were washed once with PBS and then incubated for 10 min with DMSO. Plates were analysed with a Tecan Spark 10 M microplate reader.
# An MTT assay was used to assess the cytotoxicity of the non-fluorescent Gq/11 peptidomimetics of Example 5. An MTT assay is a colorimetric test that evaluates the cell metabolic activity and reflects the cell viability.
# [1] = target: T1, human ghrelin receptor (GHSR) (Homo sapiens, UniProt Q92847, C146S/C304S); test: Bimane fluorescence assay on purified ghrelin receptor in nanodiscs; format: biochemical; details: bimane labeled GHSR, in presence of JMV1843
# T1 construct: integrin α5 fragment (N); polyhistidine tag (C); made in house; host or cells: E. coli BL21(DE3)
# T1 sequence (Q92847 whole entry C146S/C304S, the tested form may be a part): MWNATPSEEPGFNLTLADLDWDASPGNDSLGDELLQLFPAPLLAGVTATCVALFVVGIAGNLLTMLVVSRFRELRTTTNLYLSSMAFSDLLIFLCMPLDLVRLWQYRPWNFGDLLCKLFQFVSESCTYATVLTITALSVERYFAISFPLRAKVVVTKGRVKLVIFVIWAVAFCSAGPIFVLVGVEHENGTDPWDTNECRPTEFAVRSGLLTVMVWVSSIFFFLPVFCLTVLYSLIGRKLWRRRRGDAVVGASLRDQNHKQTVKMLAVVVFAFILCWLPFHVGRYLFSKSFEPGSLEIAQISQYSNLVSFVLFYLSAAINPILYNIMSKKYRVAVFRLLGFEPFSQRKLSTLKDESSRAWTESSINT
# Excerpt: Another assay that can be used to analyse conformational changes associated with GPCR activation and/or to identify G protein peptidomimetics that are capable of stabilizing a GPCR in an active conformational state is the bimane fluorescence assay or bimane assay. This assay works through labelling of a cysteine residue in the lower part of the TM6 of a GPCR with a bimane-fluorophore (monobromobimane (MB)). Binding of an agonist to the GPCR causes a conformational change and outward movement of TM6 that places bimane in a more solved-exposed position, which will alter its maximum emission wavelength. In particular, increasing concentrations of agonist result in a concentration-dependent red-shift of the maximum emission wavelength (λmax) of the bimane-fluorophore probe. In the presence of a G protein or an active state stabilizing G protein peptidomimetic λmax may increase further. For example, a bimane labelled ghrelin receptor (such as a cysmin mutant (i.e. mutant with minimal cysteines) of human ghrelin receptor (also referred to herein as growth hormone secretagogue receptor (GHSR) (e.g. the mutant as described in Damian et al. (2021) wherein monobromobimane (MB) fluorescent probe is attached to Cys^255) and ghrelin receptor agonist JMV1843 may be used.
# The bimane fluorescence assays on the ghrelin receptor were performed as described in Damian et al. (2021. Nat. Commun. 12:1-15). Briefly, E. coli bacteria (BL21(DE3)) were transformed with a vector encoding the human ghrelin receptor with an integrin α5 fragment at the N-terminus and a polyhistidine tag at the C-terminus. The receptors were then purified and reconstituted into lipidated nanodiscs. The monobromobimane labeling was performed by incubating the receptors, with a unique reactive cysteine at position 255, during 16 h in the dark at 4° C. and in the presence of 0.1 mM tris(2-carboxyethyl)phosphine (TCEO). The reaction was terminated with 5 mM L-cysteine and unreacted monobromobimane was removed using a Zeba™ Spin desalting column.
# For the fluorescence assay, the labeled receptor was incubated during 2 h at 20° C. (0.2 μM final concentration), in the absence or presence of the full agonist JMV1843 (20 μM) and in the absence or presence of either the peptidomimetics at varying molar ratios or the purified Gαqβ1γ2 heterotrimer, at a 1:5 receptor-to-G protein molar ratio. Afterwards, the fluorescence experiments were performed on a Horiba Fluoromax-4 TCSP spectrofluorimeter. For each scan, the excitation wavelength (λexc) was set at 380 nm and emission was collected between 440 nm and 520 nm.
# The bimane assay is used on GPCRs to detect conformational changes associated with receptor activation. This assay functions through the labelling of a cysteine, which is one of the least frequently occurring amino acids in proteins. Additionally, the majority of the extracellular cysteines form disulfide bonds, which, together with the transmembrane cysteines, are inert to thiol-reactive reagents. Additionally, some of the intracellular cysteines in the C-terminal tail may carry post-translational modifications which reduces the number of reactive cysteines in the receptor (Tian et al. 2017. Chem. Rev. 117:186-245). For GHSR, the remaining reactive cysteine residues C146 (ICL2) and C304 (extracellular end of TM7) were replaced by serines (cysmin mutant, i.e. mutant with minimal cysteines), to allow the monobromobimane (MB) fluorescent probe to be specifically attached to Cys255 in the lower part of TM6 (FIG. 5a) (Damian et al. 2021). In this assay, bimane is chosen because of its small size and sensitivity to the polarity of its environment (Yao et al. 2006. Nat Chem. Biol. 2:417-422). Binding of a ligand to the receptor, causes a conformational change and outward movement of TM6 that places bimane in a more solvent-exposed position, which alters its maximum emission wavelength. […]
# [2] = Solubility in aqueous buffer; details: aqueous buffer for RLA
solubility in aqueous buffer [2],Molecule,cytotoxicity / viability (HEK293 1C8 cells),conformational change in the receptor [1]
,CC[C@H](C)[C@H](NC(=O)[C@@H]1CCCCn2cc(nn2)C[C@H](NC(=O)[C@H](C)NC(=O)[C@H](Cc2ccccc2)NC(=O)[C@H](CCCCN)NC(=O)[C@H](CCCCN)NC(=O)[C@@H](N)CCCCN)C(=O)N[C@@H](C(C)C)C(=O)N[C@@H](CCCCN)C(=O)N[C@@H](CC(=O)O)C(=O)N1)C(=O)N[C@@H](CC(C)C)C(=O)N[C@@H](CCC(N)=O)C(=O)N[C@@H](CC(C)C)C(=O)N[C@@H](CC(N)=O)C(=O)N[C@@H](CC(C)C)C(=O)N[C@@H](CCCCN)C(=O)N[C@@H](CCC(=O)O)C(=O)N[C@@H](Cc1ccc(O)cc1)C(=O)N[C@@H](CC(N)=O)C(=O)N[C@@H](CC(C)C)C(=O)N[C@H](C(=O)O)C(C)C [SBL-GQ-13] (H-KKKFA[Pra]VKD[Lys(N3)]ILQLNLKEYNLV-OH; triazole 6-10),No cytotoxicity,
not soluble,Ac-FNDCKDIILQMNLREYNLV-OH [SBL-GQ-07],,not able to induce a conformational change
not soluble,CC[C@H](C)[C@H](NC(=O)[C@H](CC(=O)O)NC(=O)[C@H](CCCCN)NC(=O)[C@H](CS)NC(=O)[C@H](CC(=O)O)NC(=O)[C@H](CC(N)=O)NC(=O)[C@H](Cc1ccccc1)NC(C)=O)C(=O)N[C@H](C(=O)N[C@@H](CC(C)C)C(=O)N[C@@H](CCC(N)=O)C(=O)N[C@@H](CCSC)C(=O)N[C@@H](CC(N)=O)C(=O)N[C@@H](CC(C)C)C(=O)N[C@@H](CCCNC(=N)N)C(=O)N[C@@H](CCC(=O)O)C(=O)N[C@@H](Cc1ccc(O)cc1)C(=O)N[C@@H](CC(N)=O)C(=O)N[C@@H](CC1CCCCC1)C(=O)N[C@H](C(=O)O)C(C)C)[C@@H](C)CC [SBL-GQ-09] (Ac-FNDCKDIILQMNLREYN[Cha]V-OH),,not able to induce a conformational change
,CC[C@H](C)[C@H](NC(=O)[C@@H]1CCCCn2cc(nn2)C[C@H](NC(=O)[C@H](C)NC(=O)[C@H](Cc2ccccc2)NC(=O)[C@H](CCCNC(=N)N)NC(=O)[C@H](CCCNC(=N)N)NC(=O)[C@H](CCCNC(=N)N)NC(=O)[C@@H](N)CCCNC(=N)N)C(=O)N[C@@H](C(C)C)C(=O)N[C@@H](CCCCN)C(=O)N[C@@H](CC(=O)O)C(=O)N1)C(=O)N[C@@H](CC(C)C)C(=O)N[C@@H](CCC(N)=O)C(=O)N[C@@H](CC(C)C)C(=O)N[C@@H](CC(N)=O)C(=O)N[C@@H](CC(C)C)C(=O)N[C@@H](CCCCN)C(=O)N[C@@H](CCC(=O)O)C(=O)N[C@@H](Cc1ccc(O)cc1)C(=O)N[C@@H](CC(N)=O)C(=O)N[C@@H](CC(C)C)C(=O)N[C@H](C(=O)O)C(C)C [SBL-GQ-14] (H-RRRRFA[Pra]VKD[Lys(N3)]ILQLNLKEYNLV-OH; triazole 7-11),only a slight decrease in viability,
